# “And” between values parts separate entries of the source, which are not always exact repeats. Equal values may be shown once.
# Tests used:
# ALDH1A2 [1] = target: T1, ALDH1A2 (Homo sapiens, UniProt O94788); experiment: Kd evaluation by fluorescence emission assay; assay type: binding; details: probe 10 μM, ALDH1A2 100 to 1.1719 μM
# T1 construct: E. coli BL21 (DE3) were transformed with the full-length expression vector of each isoform; His-tag; made in house; host or cells: E. coli BL21 (DE3)
# T1 sequence (O94788 1-518): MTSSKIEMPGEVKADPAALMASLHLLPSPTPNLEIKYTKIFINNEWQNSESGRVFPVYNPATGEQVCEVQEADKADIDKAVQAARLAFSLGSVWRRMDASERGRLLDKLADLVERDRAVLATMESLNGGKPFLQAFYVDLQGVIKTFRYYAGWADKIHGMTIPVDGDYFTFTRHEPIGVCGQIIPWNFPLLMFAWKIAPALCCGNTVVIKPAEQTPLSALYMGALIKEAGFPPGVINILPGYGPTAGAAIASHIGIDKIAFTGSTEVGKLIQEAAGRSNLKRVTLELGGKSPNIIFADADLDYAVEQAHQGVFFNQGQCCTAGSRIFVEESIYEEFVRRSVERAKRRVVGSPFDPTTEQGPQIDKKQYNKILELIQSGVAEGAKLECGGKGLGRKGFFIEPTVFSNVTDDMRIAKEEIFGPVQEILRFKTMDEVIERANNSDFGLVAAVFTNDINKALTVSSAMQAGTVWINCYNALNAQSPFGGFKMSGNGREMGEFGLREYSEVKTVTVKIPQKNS
# Experimental: (§1) To evaluate the Kd constant between the two probes and the isoenzymes ALDH1A1, ALDH1A2 and ALDH1A3A we performed a fluorescence emission assay. We used a Tecan Spark with Greiner Bio-One 96-UV-Transparent Microplates. A single reaction was performed in a total volume of 100 μl per well containing 20 mM Tris HCl pH 8.0, 1 mM β-mercaptoethanol, 150 mM KCl, 500 μM NAD^+ and 10 μM fluorescent probe with a 5% DMSO final concentration, in the presence of different ALDH1As concentrations, from 100 μM to 1.1719 μM. Each reaction mix was preincubated for 10 min at 25 °C before the analysis. The obtained raw data were analyzed using GraphPad to calculate Kd values.
# ALDH1A1 [2] = target: T2, ALDH1A1 (Homo sapiens, UniProt P00352); experiment: Kd evaluation by fluorescence emission assay; assay type: binding; details: probe 10 μM, ALDH1A1 100 to 1.1719 μM
# T2 construct: E. coli BL21 (DE3) were transformed with the full-length expression vector of each isoform; His-tag; made in house; host or cells: E. coli BL21 (DE3)
# T2 sequence (P00352 1-501): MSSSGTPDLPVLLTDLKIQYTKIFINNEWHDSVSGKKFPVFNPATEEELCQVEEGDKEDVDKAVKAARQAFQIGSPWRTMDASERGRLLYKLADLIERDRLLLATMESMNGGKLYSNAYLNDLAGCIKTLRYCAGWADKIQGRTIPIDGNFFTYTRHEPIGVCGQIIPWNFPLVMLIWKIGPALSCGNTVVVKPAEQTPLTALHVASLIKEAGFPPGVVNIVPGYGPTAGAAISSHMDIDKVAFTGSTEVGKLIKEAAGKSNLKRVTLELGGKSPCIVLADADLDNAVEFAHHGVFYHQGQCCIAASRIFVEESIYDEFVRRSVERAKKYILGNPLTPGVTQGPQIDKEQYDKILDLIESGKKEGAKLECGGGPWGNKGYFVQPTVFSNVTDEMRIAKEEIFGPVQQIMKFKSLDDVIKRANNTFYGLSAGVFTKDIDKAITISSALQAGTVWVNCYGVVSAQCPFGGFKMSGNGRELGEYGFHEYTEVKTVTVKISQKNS
# Experimental: as §1
# ALDH1A3 [3] = target: T3, ALDH1A3 (Homo sapiens, UniProt P47895); experiment: Kd evaluation by fluorescence emission assay; assay type: binding; details: probe 10 μM, ALDH1A3 100 to 1.1719 μM
# T3 construct: E. coli BL21 (DE3) were transformed with the full-length expression vector of each isoform; His-tag; made in house; host or cells: E. coli BL21 (DE3)
# T3 sequence (P47895 1-512): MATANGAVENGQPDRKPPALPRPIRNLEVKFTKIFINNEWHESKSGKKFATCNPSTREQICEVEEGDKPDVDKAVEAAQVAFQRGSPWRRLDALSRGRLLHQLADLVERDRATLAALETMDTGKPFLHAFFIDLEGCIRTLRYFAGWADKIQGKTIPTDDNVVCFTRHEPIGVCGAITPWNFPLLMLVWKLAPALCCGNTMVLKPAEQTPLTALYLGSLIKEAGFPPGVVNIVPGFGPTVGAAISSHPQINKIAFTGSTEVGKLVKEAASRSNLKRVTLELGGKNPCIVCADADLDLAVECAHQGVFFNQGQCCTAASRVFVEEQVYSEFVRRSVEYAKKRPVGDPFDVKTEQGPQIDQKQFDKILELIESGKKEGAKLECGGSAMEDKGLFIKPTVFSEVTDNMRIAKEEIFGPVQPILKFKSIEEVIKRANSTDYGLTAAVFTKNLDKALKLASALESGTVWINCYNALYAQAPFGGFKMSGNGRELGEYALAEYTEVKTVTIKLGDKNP
# Experimental: as §1
# ALDH1A2 [4] = target: T1, ALDH1A2; experiment: Fluorescence signal change of probe with recombinant enzyme (cross reaction assay); assay type: binding; details: probe 10 μM; for probe fluorescence intensity (normalized): ALDH1A2 100 μM
# Description: (§2) All five fluorescent compounds were firstly characterized for their solubility in physiological buffer and for their absorbance values. We then performed a 3D analysis using a TECAN SPARK to simultaneously evaluate the excitation and the emission wavelengths, that were supposed to be similar to the curcumin ones[48]. […] For these reasons, we decided to continue the biochemical characterization on Probe 10 and 11 using the selected parameters (Fig. 2). The fluorescent signal changes for both molecules upon binding to the target, were firstly evaluated with recombinant human ALDH1A3. […] To better characterized our fluorescent compounds, we tested their potential cross-reactivity toward the other two isoforms of the ALDH1A subfamily. […] In addition, a wide range of biologically relevant analytes were tested at a concentration of 100 μM in complex with a fixed concentration of 10 μM of the probe (either probe 10 or probe 11), to make sure that no potential off-target signals could affect the analysis. More specifically, we checked if there were abnormal fluorescence signals that could have been contributed by the presence of biologically relevant compounds, (e.g., biologically relevant amino acids), to buffers and molecules commonly used in experimental procedures.
# (§3) Based on the values obtained by the 3D analysis, a wide series of biomolecules directly used in the biochemical experiment, both in vitro and in vivo, and listed in Table 1, were tested in complex with a fixed concentration of 10 μM of both probes, to measure any possible cross reaction signal.
# ALDH1A1 [5] = target: T2, ALDH1A1; experiment: as above; assay type: binding; details: probe 10 μM; for probe fluorescence intensity (normalized): ALDH1A1 100 μM
# Description: as §2, §3
# ALDH1A3 [6] = target: T3, ALDH1A3; experiment: as above; assay type: binding; details: probe 10 μM; for probe fluorescence intensity (normalized): ALDH1A3 100 μM; for increase in the intensity of the fluorescent signal on addition of ALDH1A3: vs probe alone
# Description: as §2, §3
# [7] = Solubility in physiological buffer; assay type: physicochemical; details: among all five molecules
# Description: as §2
SMILES,Kd (ALDH1A2 [1]),Kd (ALDH1A1 [2]),Kd (ALDH1A3 [3]),probe fluorescence intensity (normalized) (ALDH1A2 [4]; listed as probe B),reduction of the fluorescence signal with ALDH1A2 compared to ALDH1A3 (ALDH1A2 [4]),probe fluorescence intensity (normalized) (ALDH1A1 [5]; listed as probe B),reduction of the fluorescence signal with ALDH1A1 compared to ALDH1A3 (ALDH1A1 [5]),probe fluorescence intensity (normalized) (ALDH1A3 [6]; listed as probe B),increase in the intensity of the fluorescent signal on addition of ALDH1A3 (ALDH1A3 [6]),solubility in physiological buffer [7],probe fluorescence intensity (normalized) (ALDH1A2 [4]; listed as probe A),probe fluorescence intensity (normalized) (ALDH1A1 [5]; listed as probe A),probe fluorescence intensity (normalized) (ALDH1A3 [6]; listed as probe A)
COc1cc(/C=C/C(O)=C/C(=O)/C=C/c2ccc(OCc3cn(CCOc4ccc(C=O)cc4)nn3)c(OC)c2)ccc1O [Probe 10],36.9 µM,31.1 µM,38.2 µM,4.479 and 4.412 and 3.9708,~4 folds,2.886 and 2.75 and 2.685,about 2 folds,11.108 and 11.7869 and 9.709,about 12 folds,highest solubility,–,–,–
CCOC(=O)Cn1cc(COc2ccc(/C=C/C(=O)/C=C(O)/C=C/c3ccc(O)c(OC)c3)cc2OC)nn1 [Probe 11],125 µM,42.4 µM,84.3 µM,–,6 folds,–,4 folds,–,~8 folds,highest solubility,5.638 and 5.434 and 5.428,4.322 and 4.415 and 4.4337,7.871 and 7.494 and 8.003

# — publication PMC9437101, “Curcumin-based-fluorescent probes targeting ALDH1A3 as a promising tool for glioblastoma precision surgery and early diagnosis” (Communications Biology, 2022)
